Laboratory results published in patent publication US10858347B2, “Multicyclic compounds and uses thereof” (Karyopharm Therapeutics Inc., priority 2015, dated 2020).

What was measured:
MS751 cells = test: MTT cell proliferation assay, MS751 cells; assay type: cell-based; conditions: MS751 cells (human cervix squamous cell carcinoma, lymph node metastasis); approximately 64-72 hours incubation
Protocol: (§1) The MTT cell proliferation assay was used to study the cytotoxic properties of the compounds. The assay was performed according to the method described by Roche Molecular Biochemicals, with minor modifications. The assay is based on the cleavage of the tetrazolium salt, MTT, in the presence of an electron-coupling reagent. The water-insoluble formazan salt produced must be solubilized in an additional step. Cells grown in a 96-well tissue culture plate were incubated with the MTT solution for approximately 4 hours. After this incubation period, a water-insoluble formazan dye formed. After solubilization, the formazan dye was quantitated using a scanning multi-well spectrophotometer (ELISA reader). […] The cells were seeded at 5,000-10,000 cells in each well of 96-well plate in 100 μL of fresh culture medium and were allowed to attach overnight. The stock solutions of the compounds were diluted in 100 μL cell culture medium to obtain eight concentrations of each test compound, ranging from 1 nM to 30 μM. […] All optical densities were measured at 490 nm using a Vmax Kinetic Microplate Reader (Molecular Devices). In most cases, the assay was performed in duplicate and the results were presented as a mean percent inhibition to the negative control±SE. The following formula was used to calculate the percent of inhibition: Inhibition (%)=(1−(ODo/OD))×100.
(§2) The compounds were tested against MS751, Z138 and 3T3 cells. The MS751 cell line is derived from a metastasis to lymph node of human cervix from a patient diagnosed with squameous cell carcinoma of the cervix. The Z138 cell line is a mature B-cell acute lymphoblastic leukemia cell line derived from a patient with chronic lumphocytic leukemia. 3T3 cells are standard fibroblast cells; they were originally isolated from Swiss mouse embryo tissue.

Z138 cells = test: MTT cell proliferation assay, Z138 cells; assay type: cell-based, human; conditions: Homo sapiens, Z-138; Z138 cells (mature B-cell acute lymphoblastic leukemia cell line); approximately 64-72 hours incubation
Protocol: as §1, §2

3T3 cells = test: MTT cell proliferation assay, 3T3 cells; assay type: cell-based; conditions: NIH3T3; 3T3 cells (standard fibroblast cells, Swiss mouse embryo); approximately 64-72 hours incubation
Protocol: as §1, §2

| SMILES | IC50 (MS751 cells) | IC50 (Z138 cells) | IC50 (3T3 cells) |
| --- | --- | --- | --- |
| Nc1ccc(NC(=O)NCc2cc3cc(-c4ccc(C(=O)N5CCC(F)(F)CC5)cc4)cc(-c4ccc(F)cc4)c3o2)cn1 [Compound 101, 1-(6-aminopyridin-3-yl)-3-((5-(4-(4,4-difluoropiperidine-1-carbonyl)phenyl)-7-(4-fluorophenyl)benzofuran-2-yl)methyl)urea] | 0.1 to 5 µM | 0.1 to 5 µM | > 10 µM |
| O=C(NCCc1cc2cc(-c3ccc(C(=O)N4CCC(F)(F)CC4)cc3)cc(-c3ccc(F)cc3)c2o1)N1Cc2ccncc2C1 [Compound 107, N-(2-(5-(4-(4,4-difluoropiperidine-1-carbonyl)phenyl)-7-(4-fluorophenyl)benzofuran-2-yl)ethyl)-1H-pyrrolo[3,4-c]pyridine-2(3H)-carboxamide] | < 0.1 µM | < 0.1 µM | 0.1 to 5 µM |
| Nc1ccc(CNC(=O)NCc2cc3cc(-c4ccc(C(=O)N5CCC(F)(F)CC5)cc4)cc(-c4ccc(F)cc4)c3o2)cn1 [Compound 100, 1-((6-aminopyridin-3-yl)methyl)-3-((5-(4-(4,4-difluoropiperidine-1-carbonyl)phenyl)-7-(4-fluorophenyl)benzofuran-2-yl)methyl)urea] | < 0.1 µM | < 0.1 µM | 0.1 to 5 µM |
| O=C(NCc1cc2cc(-c3ccc(C(=O)N4CCC(F)(F)CC4)cc3)cc(-c3ccc(F)cc3F)c2o1)N1Cc2ccncc2C1 [Compound 108, N-((7-(2,4-difluorophenyl)-5-(4-(4,4-difluoropiperidine-1-carbonyl)phenyl)benzofuran-2-yl)methyl)-1H-pyrrolo[3,4-c]pyridine-2(3H)-carboxamide] | < 0.1 µM | < 0.1 µM | > 10 µM |
| Nc1ccc(C2CN(C(=O)NCc3cc4cc(-c5ccc(C(=O)N6CCC(F)(F)CC6)cc5)cc(-c5ccc(F)cc5)c4o3)C2)cn1 [Compound 103, 3-(6-aminopyridin-3-yl)-N-((5-(4-(4,4-difluoropiperidine-1-carbonyl)phenyl)-7-(4-fluorophenyl)benzofuran-2-yl)methyl)azetidine-1-carboxamide] | 0.1 to 5 µM | < 0.1 µM | 0.1 to 5 µM |
| O=C(NCCOc1ccc(-c2ccc(C(=O)N3CCC(F)(F)CC3)cc2)cc1-c1ccc(F)cc1)N1Cc2ccncc2C1 [Compound 121, N-(2-((4-(4,4-difluoropiperidine-1-carbonyl)-4″-fluoro-[1,1′:3′,1″-terphenyl]-4′-yl)oxy)ethyl)-1,3-dihydro-2H-pyrrolo[3,4-c]pyridine-2-carboxamide] | < 0.1 µM | < 0.1 µM | > 10 µM |
